Measured values taken from patent publication US9464093B2, “Substituted imidazo[4',5':4,5]cyclopenta[1,2-e]pyrrolo[1,2-a]pyrazines and oxazolo[4',5':4,5]cyclopenta[1,2-e]pyrrolo[1,2-a]pyrazines for treating brain cancer” (Mayo Foundation for Medical Education and Research, priority 2012, dated 2016).
Like-named read-outs stand apart in the source and are kept apart here.

Experiments:
[1] = tested on: MB-468 (triple-negative breast cancer cells); assay: Cytotoxicity, cell count, MB-468 (Example 4); settings: read-out: Cytotoxicity (IC50, μM) MB-468
Procedure: (§1) Raji cells and MB-468 cells were purchased from American Tissue Culture (Manassas, Va.). […] Cells were harvested and counted on the third day in a Coulter Particle Counter (Beckman-Coulter Corp.: Brea, Calif.). IC50 values were calculated using GraphPad Prism 5 (GraphPad Software Inc., La Jolla, Calif.).

[2] = tested on: Raji B cells (Burkitt's lymphoma cells); assay: Cytotoxicity, cell count, Raji (Example 4); settings: read-out: Cytotoxicity (IC50, μM) Raji
Procedure: as §1

MB-453 = assay: Cell proliferation assay MB-453 (Example 6); assay type: cell-based; settings: cells counted on the sixth day
Procedure: In-vitro assays were performed to assess the cytotoxic impact of AA analogues on breast cancer cell lines (MB-468, MB-453, and T47D), lymphoma cell lines (Raji and OCI-LY10), and glioblastoma multiforme cell line (U87). The three breast cancer cell lines represent three subtypes of breast cancer: triple-negative (MB-468), Her2-positive (MB-453), and hormone receptor positive (T47D).
The IC50 values obtained for each compound represents the concentration of the tested compound that is needed to decrease the cancer cell count by 50%. Cancer cells were seeded in triplicate at 50,000 cells per well of a 24-well plate in 0.5 ml medium. […] Cells were harvested and counted on the sixth day using a Beckman Coulter counter.

[3] = CNS pharmacokinetic analysis in rats (microdialysis, CE-UV); settings: male, Sprague-Dawley, rat, in vivo, iv, 2.5 mg/kg
Procedure: Male Sprague-Dawley rats (Harlan, Indianapolis, Ind., USA) were used in this CNS pharmacokinetic study on Agelastatin A and its three analogues (CAA, CEAA, and DCEAA). Six rats were used for each drug. The rats were approximately 2 months old and weighed 300±25 g at the beginning of the study. All rats were housed in a temperature-controlled room (23±2° C.) with a 12:12 light dark cycle (lights off at 6:00 pm). Purina 5001 Rodent Chow and tap water were available ad libitum at all times.
Rats were anesthetized with gasiform isoflurane (1% isoflurane in a mixture of 20% oxygen and 80% nitrogen gas) and immobilized in a stereotaxic frame (KOPF Instruments, Tujunga, Calif.). Anesthesia was maintained during the entire procedure. The guide cannula (CMA Microdialysis Inc., Acton, Mass.) was stereotactically implanted into the lateral ventricle (AP −0.9, L 1.6, V 3.4, relative to bregma and skull), and then secured to the skull by screws and dental cement. Following surgery, each rat was housed individually with food and water ad libitum for 3 days for recovery from cannulation surgery. Microdialysis experiments were carried out on conscious, freely moving rats. On the day of the experiment, the stylet in the guide cannula was replaced with the microdialysis probe (CMA/11 with 4 mm membrane, CMA Microdialysis Inc., Acton, Mass.) and a vascular microdialysis probe (CMA/20 with 4 mm membrane, CMA Microdialysis Inc, Acton, Mass.)) was implanted into a jugular vein. The probes had inlet tubes connected to syringes to deliver artificial cerebrospinal fluid (146 mM NaCl, 1.2 mM CaCl2, 3 mM KCl, 1 mM MgCl2, 1.9 mM Na2HPO4, 0.1 mM NaH2PO4, pH 7.4) into the ventricle and Dulbecco's phosphate-buffered saline (D-PBS) into the blood at 0.5 μl/min flow rate. […]
The drug concentration in the microdialysate was measured by CE-UV (Agilent 3D CE). […] The absorbance from the drug was detected with UV at 280 nm. […]
Two-way repeated measures ANOVA followed by Tukey's test was used. […] CNS penetration is determined as the ratio of CSF and blood area under the curve (AUC).

`CN1C(=O)N[C@H]2[C@@H]3NC(=O)c4ccc(Br)n4[C@@H]3C[C@]21O` [AA, agelastatin A, reference compound] showed an IC50 ([1]; cells counted on the third day) of 2.8 µM, an IC50 ([2]; cells counted on the third day) of 0.14 µM and an IC50 (MB-453) of 644 nM.

For `CN1C(=O)N[C@H]2[C@@H]3NC(=O)c4ccc(Cl)n4[C@@H]3C[C@]21O` [CAA, chloroagelastatin A], the IC50 [1] was 0.08 µM, the IC50 ([2]; Homo sapiens, Raji) was 0.18 µM and the IC50 (MB-453) was 91.9 nM. The Kp [3] was 0.16.

`CCN1C(=O)N[C@H]2[C@@H]3NC(=O)c4ccc(Cl)n4[C@@H]3C[C@]21O` [CEAA, chloroethylagelastatin A] gave an IC50 [1] of 0.28 µM, an IC50 ([2]; Homo sapiens, Raji) of 0.3 µM and an IC50 (MB-453) of 141 nM. The Kp [3] was 0.27.

For `CCN1C(=O)N[C@H]2[C@@H]3NC(=O)c4cc(Cl)c(Cl)n4[C@@H]3C[C@]21O` [DCEAA, dichloroethylagelastatin A], the IC50 [1] was 0.44 µM, the IC50 ([2]; Homo sapiens, Raji) was 0.62 µM and the IC50 (MB-453) was 104 nM. It also gave a Kp [3] of 0.307.
